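48-hour exposure; five concentrations; linearly interpolated endpoints. GI50 = concentration required for 50% inhibition of growth. TGI is the concentration that stops growth completely.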
Tests used:
Experiment in all cases: NCI tumour cell line growth inhibition, 48 h
[1] = test system: COLO 205 colon
[2] = test system: HL-60(TB) leukemia
[3] = test system: HT29 colon
[4] = test system: IGROV1 ovarian
[5] = test system: OVCAR-5 ovarian
[6] = test system: SNB-19 CNS
[7] = test system: SNB-75 CNS
[8] = test system: SR leukemia
[9] = test system: SW-620 colon
[10] = test system: MCF7 breast
[11] = test system: PC-3 prostate

Row | Compound | TGI [1] [µM] | TGI [2] [µM] | TGI [3] [µM] | TGI [4] [µM] | TGI [5] [µM] | TGI [6] [µM] | TGI [7] [µM] | TGI [8] [µM] | TGI [9] [µM] | TGI [10] [µM] | TGI [11] [µM] | GI50 [2] [µM] | GI50 [3] [µM] | GI50 [10] [µM] | GI50 [5] [µM] | GI50 [11] [µM] | GI50 [6] [µM] | GI50 [7] [µM] | GI50 [8] [µM] | GI50 [9] [µM]
1 | OCC(O)COc1ccc(Br)cc1 (stereo not drawn) | > 100 | > 100 | > 100 | > 100 | > 100 | > 100 | > 100 | > 100 | > 100 |  |  |  |  |  |  |  |  |  |  | 
2 | Cc1ccc(OP2(=O)Oc3ccc4ccccc4c3CN2c2ccc(Cl)cc2)cc1C (stereo not drawn) | > 100 | > 100 | > 100 | > 100 | > 100 | > 100 | > 100 |  | > 100 | > 100 |  |  |  |  |  |  |  |  |  | 
3 | COc1ccc(C(=O)C2CC3(CCC2(O)c2ccc(OC)cc2)CC(=O)Nc2ccccc2C3=O)cc1 (stereo not drawn) | > 100 | > 100 | > 100 | > 100 | > 100 |  | > 100 | > 100 | > 100 | > 100 | > 100 |  |  |  |  |  |  |  |  | 
4 | CO/C(=N\N=C(/C)C(F)(F)F)c1ccncc1 | > 100 | > 100 | > 100 | > 100 | > 100 | > 100 | > 100 | > 100 |  | > 100 | > 100 |  |  |  |  |  |  |  |  | 
5 | CCOc1ncn(-c2ccc(NC(=S)Nc3cccc(O)c3)cc2)n1 | > 100 | > 100 | > 100 | > 100 | > 100 | > 100 | > 100 | > 100 | > 100 | > 100 | > 100 |  |  |  |  |  |  |  |  | 
6 | ClCCN(CCCl)Cc1ccc(Nc2ccnc3cc(Cl)ccc23)cc1 |  | 3.07 | 4.73 |  | 6.66 | 6.73 | 3.72 | 2.78 | 14.6 | 9.34 | 5.71 | 0.403 | 1.28 | 0.588 | 2.57 | 1.57 | 1.89 | 1.34 | 0.269 | 1.35
7 | COc1ccc2c(O)c3[n+](cc2c1OC)CCc1cc2c(cc1-3)OCO2 | > 100 | > 100 | > 100 | > 100 | > 100 | > 100 | > 100 | > 100 | > 100 | > 100 | > 100 |  |  |  |  |  |  |  |  | 
